# pEC50: −log10 of the molar value. Where two headings read alike, the source gives them in different places.
# System: hypoxia-inducible endogenous VEGF expression
# Assay: Hypoxia-inducible endogenous VEGF expression ELISA in HeLa cells, dose-response EC50 (Table 3)
# Type: cell-based, human
# Conditions: for pEC50: HeLa cells, hypoxic conditions (1% O2), read-out: ELISA EC50; for EC50: HeLa, read-out: ELISA EC50 μM
# Method in brief: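 HeLa cells kept 24-48 h under hypoxia (1% O2, 5% CO2, nitrogen balance) with or without compound, e.g. seven concentrations; secreted VEGF in conditioned medium quantified by ELISA against a standard curve. Parallel Cell Titer Glo viability under identical conditions excludes cytotoxicity.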
# [1] = Homo sapiens, 24-48 hours, VEGF in conditioned media
# [2] = Homo sapiens, VEGF ELISA of conditioned media
# [3] = 24-48 hours, VEGF in conditioned media
SMILES,pEC50 [1],further results
CC(C)OC(=O)Nc1ccc(C2c3[nH]c4ccc(Cl)cc4c3CCN2C(=O)Oc2ccc(Cl)cc2)cc1 (centres unmarked) [Compound 489],6.70 to 7.40,–
CC1(C)C(=O)NC(=O)N1CCCOc1ccc(C2c3[nH]c4ccc(Cl)cc4c3CCN2C(=O)Oc2ccc(Cl)cc2)cc1 (centres unmarked) [Compound 1671],–,EC50 (Homo sapiens): < 0.008 µM
O=C(Oc1ccc(Cl)cc1)N1CCc2c([nH]c3ccc(Cl)cc23)[C@@H]1c1ccc(OC2CCOCC2)cc1 [Compound 1605],–,pEC50 [2]: > 8.10
C=CCOc1ccc(C2c3[nH]c4ccc(Cl)cc4c3CCN2C(=O)Oc2ccc(Cl)cc2)cc1 (centres unmarked) [Compound 400],–,pEC50 [3]: > 8.10
Cc1ccc(OC(=O)N2CCc3c([nH]c4ccc(Cl)cc34)[C@@H]2c2ccc(OCCC(O)CN(CCO)CCO)cc2)cc1 (some centres unmarked) [Compound 1288],–,EC50 (Homo sapiens): 0.008 to 0.04 µM
COc1ccc(C2c3[nH]c4ccc(Cl)cc4c3CCN2C(=O)Oc2ccc(Cl)cc2)cc1OCCCCn1cncn1 (centres unmarked) [Compound 1091],6.00 to 6.70,–
O=C(Oc1ccc(Cl)cc1)N1CCc2c([nH]c3ccc(Cl)cc23)C1c1ccc(OCCCn2ccnc2)cc1 (centres unmarked) [Compound 917],> 8.10,–
CCN1CCN(C(=O)COc2ccc(C3c4[nH]c5ccc(Cl)cc5c4CCN3C(=O)Oc3ccc(F)cc3)cc2)CC1 (centres unmarked) [Compound 1024],–,EC50 (Homo sapiens): 0.04 to 0.2 µM
COc1ccc(C2c3[nH]c4ccc(Cl)cc4c3CCN2C(=O)Oc2ccc(Cl)cc2)cc1OCCn1cncn1 (centres unmarked) [Compound 1089],6.00 to 6.70,–
O=C(Oc1ccc(Cl)cc1)N1CCc2c([nH]c3ccc(Cl)cc23)C1c1ccc(OCCCCn2ccnc2)cc1 (centres unmarked) [Compound 1001],–,pEC50 [3]: 7.40 to 8.10
CN1CCCC(COc2ccc(C3c4[nH]c5ccc(Cl)cc5c4CCN3C(=O)Oc3ccccc3Cl)cc2)C1 (centres unmarked) [Compound 976],–,EC50 (Homo sapiens): 0.04 to 0.2 µM
O=C(Oc1ccc(F)cc1)N1CCc2c([nH]c3ccc(Cl)cc23)C1c1ccc(OC2CCOCC2)cc1 (centres unmarked) [Compound 1577],–,pEC50 [2]: > 8.10
O=C(Oc1ccccc1)N1CCc2c([nH]c3ccc(Cl)cc23)[C@@H]1c1ccc(OCC[C@H](O)CO)cc1 [Compound 1299],> 8.10,–
CC1(C)OC[C@H](CCOc2ccc([C@H]3c4[nH]c5ccc(Cl)cc5c4CCN3C(=O)Oc3ccc(Cl)cc3)cc2)O1 [Compound 1203],> 8.10,–
O=C(Oc1ccc(Cl)cc1)N1CCc2c([nH]c3ccc(Cl)cc23)[C@@H]1c1ccc(OC2CCN(CC[C@H](O)CO)CC2)cc1 [Compound 1703],–,EC50 (Homo sapiens): 0.2 to 1 µM
C=CC(=O)Nc1ccc(C2c3[nH]c4ccc(Cl)cc4c3CCN2C(=O)Oc2ccc(Cl)cc2)cc1 (centres unmarked) [Compound 500],6.70 to 7.40,–
O=C(Oc1ccc(Cl)cc1)N1CCc2c([nH]c3ccc(Cl)cc23)C1c1ccc(OCC(O)CNS(=O)(=O)C2CC2)cc1 (centres unmarked) [Compound 1567],–,pEC50 [2]: 6.70 to 7.40
CN(C)CCCOc1ccc(C2c3[nH]c4ccc(Cl)cc4c3CCN2C(=O)Oc2ccc(Br)cc2)cc1 (centres unmarked) [Compound 468],–,EC50 (Homo sapiens): 0.008 to 0.04 µM
COc1ccc(OC(=O)N2CCc3c([nH]c4ccc(Cl)cc34)C2c2ccc(OCCCCl)cc2)cc1 (centres unmarked) [Compound 944],7.40 to 8.10,–
COc1ccc(C2c3[nH]c4ccc(Cl)cc4c3CCN2C(=O)Oc2ccc(F)cc2)cc1 (centres unmarked) [Compound 410],–,pEC50 [3]: > 8.10
N#Cc1ccc(C2c3[nH]c4ccc(Cl)cc4c3CCN2C(=O)Oc2ccc(Cl)cc2)cc1 (centres unmarked) [Compound 350],> 8.10,–
O=C(Oc1ccccc1)N1CCc2c([nH]c3ccc(Br)cc23)C1c1ccccc1 (centres unmarked) [Compound 76],7.40 to 8.10,–

SMILES,pEC50 [1],further results
O=C(Oc1ccc(Cl)cc1)N1CCc2c([nH]c3ccc(Cl)cc23)C1c1ccc(OCCn2ccnn2)cc1 (centres unmarked) [Compound 839],7.40 to 8.10,–
O=C(Oc1ccc(Cl)cc1)N1CCc2c([nH]c3ccc(Cl)cc23)[C@@H]1c1ccc(OCCCO)cc1 [Compound 1250],> 8.10,–
O=C(Nc1ccc(C2c3[nH]c4ccc(Cl)cc4c3CCN2C(=O)Oc2ccc(Cl)cc2)cc1)c1ccco1 (centres unmarked) [Compound 437],> 8.10,–
COc1ccc(OC(=O)N2CCc3c([nH]c4ccc(Cl)cc34)C2c2ccc(OCC#N)cc2)cc1 (centres unmarked) [Compound 1549],–,pEC50 [2]: 7.40 to 8.10
CCOC(=O)NCC(O)COc1ccc(C2c3[nH]c4ccc(Cl)cc4c3CCN2C(=O)Oc2ccc(Cl)cc2)cc1 (centres unmarked) [Compound 1562],–,pEC50 [2]: 7.40 to 8.10
O=C(Oc1ccc(Cl)cc1)N1CCc2c([nH]c3ccc(Cl)cc23)[C@@H]1c1ccc(OCCCn2ccnn2)cc1 [Compound 1068],> 8.10,–
COc1ccc(C2c3[nH]c4ccc(Cl)cc4c3CCN2C(=O)O[C@H]2C[C@@H](C)CC[C@@H]2C(C)C)cc1 (some centres unmarked) [Compound 192],6.00 to 6.70,–
C=CCOc1ccc(C2c3[nH]c4ccc(Cl)cc4c3CCN2C(=O)Oc2ccccc2)cc1 (centres unmarked) [Compound 413],> 8.10,–
O=C(Oc1ccc(Cl)cc1)N1CCc2c([nH]c3ccc(Cl)cc23)C1c1ccc(OCC2OCCO2)cc1 (centres unmarked) [Compound 1053],> 8.10,–
COc1ccc(OC(=O)N2CCc3c([nH]c4ccc(Cl)cc34)C2c2ccc(OCC[C@H]3COC(C)(C)O3)cc2)cc1 (some centres unmarked) [Compound 1171],> 8.10,–
CCC(=O)NCC(O)CCOc1ccc([C@H]2c3[nH]c4ccc(Cl)cc4c3CCN2C(=O)Oc2ccc(Cl)cc2)cc1 (some centres unmarked) [Compound 1625],–,pEC50 [2]: > 8.10
COc1ccc(OC(=O)N2CCc3c([nH]c4ccc(Cl)cc34)C2c2ccc(OCCCN3CCN(C)CC3)cc2)cc1 (centres unmarked) [Compound 1108],–,EC50 (Homo sapiens): 0.008 to 0.04 µM
CCOC(=O)NCC(O)CCOc1ccc([C@H]2c3[nH]c4ccc(Cl)cc4c3CCN2C(=O)Oc2ccc(C)cc2)cc1 (some centres unmarked) [Compound 1643],–,pEC50 [2]: > 8.10
COCCCNCCCCOc1ccc(C2c3[nH]c4ccc(Cl)cc4c3CCN2C(=O)Oc2ccc(Cl)cc2)cc1 (centres unmarked) [Compound 701],–,EC50 (Homo sapiens): 0.008 to 0.04 µM
CCC(CO)(CO)COc1ccc([C@H]2c3[nH]c4ccc(Cl)cc4c3CCN2C(=O)Oc2ccc(F)cc2)cc1 [Compound 1328],–,pEC50 [2]: > 8.10
CC(=O)OCC1OC(n2cc(CCOc3ccc([C@H]4c5[nH]c6ccc(Cl)cc6c5CCN4C(=O)Oc4ccc(Cl)cc4)cc3)nn2)C(OC(C)=O)C(OC(C)=O)C1OC(C)=O (some centres unmarked) [Compound 1677],–,pEC50 [2]: 6.70 to 7.40
O=C(Oc1ccc(Cl)cc1)N1CCc2c([nH]c3ccc(Cl)cc23)C1c1ccc(OCCCN2CCN(CCO)CC2)cc1 (centres unmarked) [Compound 942],–,EC50 (Homo sapiens): 0.008 to 0.04 µM
O=C(Oc1ccc(Cl)cc1)N1CCc2c([nH]c3ccc(Cl)cc23)C1c1ccc(OCCCO)cc1 (centres unmarked) [Compound 1111],> 8.10,–
COc1ccc(OC(=O)N2CCc3c([nH]c4ccc(Cl)cc34)C2c2ccc(OCCCN(C)C)cc2)cc1 (centres unmarked) [Compound 501],–,EC50 (Homo sapiens): 0.04 to 0.2 µM
COc1ccc(OC(=O)N2CCc3c([nH]c4ccc(Cl)cc34)C2c2ccc(OCCCN3CCOCC3)cc2)cc1 (centres unmarked) [Compound 1030],–,EC50 (Homo sapiens): 0.008 to 0.04 µM
O=C(Oc1ccc(Cl)cc1)N1CCc2c([nH]c3ccc(Cl)cc23)C1c1ccc(OCC(O)CN2CCN(CCO)CC2)cc1 (centres unmarked) [Compound 960],–,EC50 (Homo sapiens): 0.008 to 0.04 µM
COCCOCCOc1ccc(C2c3[nH]c4ccc(Cl)cc4c3CCN2C(=O)Oc2ccc(Cl)cc2)cc1 (centres unmarked) [Compound 675],7.40 to 8.10,–

SMILES,pEC50 [1],further results
O=C(O)c1ccc(C2c3[nH]c4ccc(Br)cc4c3CCN2C(=O)Oc2ccc(Cl)cc2)cc1 (centres unmarked) [Compound 519],6.00 to 6.70,–
O=C(Oc1ccc(Cl)cc1)N1CCc2c([nH]c3ccc(Br)cc23)C1c1ccc(OCC(O)CO)cc1 (centres unmarked) [Compound 1344],–,pEC50 [2]: > 8.10
COc1ccc(OC(=O)N2CCc3c([nH]c4ccc(Cl)cc34)C2c2ccc(OCC(=O)N3CCOCC3)cc2)cc1 (centres unmarked) [Compound 1027],6.70 to 7.40,–
O=C(Oc1ccc(F)cc1)N1CCc2c([nH]c3ccc(Cl)cc23)C1c1ccc(OCCCCCCn2ccnc2)cc1 (centres unmarked) [Compound 780],> 8.10,–
COc1ccc(C2c3[nH]c4ccc(Cl)cc4c3CCN2C(=O)Oc2ccc(C)cc2)cc1F (centres unmarked) [Compound 1196],7.40 to 8.10,–
CC1(C)OC[C@H](COc2ccc([C@H]3c4[nH]c5ccc(Cl)cc5c4CCN3C(=O)Oc3ccc(Cl)cc3)cc2)O1 [Compound 1227],> 8.10,–
COC(=O)NCC(O)COc1ccc(C2c3[nH]c4ccc(Cl)cc4c3CCN2C(=O)Oc2ccc(Cl)cc2)cc1 (centres unmarked) [Compound 848],> 8.10,–
CC(C)c1ccc(C2c3[nH]c4ccc(Cl)cc4c3CCN2C(=O)Oc2ccc(Cl)cc2)cc1 (centres unmarked) [Compound 348],> 8.10,–
NC(=O)COc1ccc(C2c3[nH]c4ccc(Cl)cc4c3CCN2C(=O)Oc2ccccc2Cl)cc1 (centres unmarked) [Compound 1213],6.70 to 7.40,–
CC(C)c1ccc(C2c3[nH]c4ccc(Br)cc4c3CCN2C(=O)Oc2ccc(Cl)cc2)cc1 (centres unmarked) [Compound 354],> 8.10,–
COCCCNCCCCCCOc1ccc(C2c3[nH]c4ccc(Cl)cc4c3CCN2C(=O)Oc2ccc(Cl)cc2)cc1 (centres unmarked) [Compound 785],–,EC50 (Homo sapiens): < 0.008 µM
COCCN(C)CCCOc1ccc(C2c3[nH]c4ccc(Cl)cc4c3CCN2C(=O)Oc2ccc(Cl)cc2)cc1 (centres unmarked) [Compound 908],–,EC50 (Homo sapiens): < 0.008 µM
O=C(Oc1ccc(Cl)cc1)N1CCc2c([nH]c3ccc(Cl)cc23)C1c1ccc(OC2COC(c3ccccc3)OC2)cc1 (centres unmarked) [Compound 1569],–,pEC50 [2]: > 8.10
CN1CCN(CCCCOc2ccc(C3c4[nH]c5ccc(Cl)cc5c4CCN3C(=O)Oc3ccc(Cl)cc3)cc2)CC1 (centres unmarked) [Compound 704],–,EC50 (Homo sapiens): 0.04 to 0.2 µM
COc1ccc(C2c3[nH]c4ccc(Cl)cc4c3CCN2C(=O)Oc2ccc(C)cc2)cc1 (centres unmarked) [Compound 17],> 8.10,–
O=C(Oc1ccc(Cl)cc1)N1CCc2c([nH]c3ccc(Cl)cc23)C1c1ccc(OCCCCCCNCCCn2ccnc2)cc1 (centres unmarked) [Compound 789],–,EC50 (Homo sapiens): 0.04 to 0.2 µM
COc1cc(C2c3[nH]c4ccc(Cl)cc4c3CCN2C(=O)Oc2ccc(Cl)cc2)ccc1OCCCCN1CCOCC1 (centres unmarked) [Compound 1094],–,EC50 (Homo sapiens): 0.008 to 0.04 µM
COc1ccc(OC(=O)N2CCc3c([nH]c4ccc(Cl)cc34)[C@@H]2c2ccc(OCC[C@@H](O)CO)cc2)cc1 [Compound 1361],–,pEC50 [2]: 7.40 to 8.10
O=C(Oc1ccccc1)N1CCc2c([nH]c3ccc(Cl)cc23)C1c1ccccc1 (centres unmarked) [Compound 121],7.40 to 8.10,–
O=C(Oc1ccccc1Cl)N1CCc2c([nH]c3ccc(Cl)cc23)C1c1ccc(OCCCn2ccnc2)cc1 (centres unmarked) [Compound 934],> 8.10,–
COc1ccc(C2c3[nH]c4ccc(Br)cc4c3CCN2C(=O)Oc2ccc(Cl)cc2)cc1 (centres unmarked) [Compound 355],> 8.10,–

# From patent publication US20120157401A1, “METHODS FOR TREATING NEUROFIBROMATOSIS” (PTC Therapeutics, Inc., priority 2009, published 2012)
